Test results as given in patent US4705799A, “Aminomethyl oxooxazolidinyl benzenes useful as antibacterial agents” (E. I. Du Pont de Nemours and Company, priority 1985, dated 1987).
≈ marks a conversion by molar mass, not a printed value.

How the values were obtained:
[1] = system: Staphylococcus epidermidis; test: In vitro broth dilution minimal inhibitory concentration (standard microdilution method); assay type: cell-based; conditions: Mueller-Hinton broth, 24-hour; for MIC: 24 h, read-out: Microdilution Broth MIC
[2] = system: Escherichia coli; test: as above; assay type: cell-based; conditions: Escherichia coli, Mueller-Hinton broth, 24-hour; for MIC: read-out: Microdilution Broth MIC
[3] = system: Escherichia coli; test: In vivo efficacy of orally administered compounds in mouse intraperitoneal infections; conditions: mouse i.p. Escherichia coli infection, oral, dosed at infection and 4 h post-infection, 7 days; for ED50: 168 h, read-out: ED50 (50 percent effective dose)
Protocol: (§1) Determinations of in vivo efficacy are performed by inoculating mice intraperitoneally with cultures of the infecting organism diluted to produce 90-100% mortality in control animals within twenty-four hours. The diluents used were trypticase soy broth for E. coli and 5% aqueous hog gastric mucin for Staphylococcus aureus infections. The compounds are dissolved or suspended in 0.25% aqueous Methocel® (Methocel®: Hydroxypropyl Methylcellulose E15 Premium, Dow Chemical Company) for oral administration or sterile distilled water containing 5% dimethylsulfoxide (Fisher Scientific Company, Fairlawn, N.J.) for subcutaneous administration. The mice are dosed at the time of infection and again at four hours post-infection. Mortality is recorded daily until test termination seven days post infection and the 50 percent effective dose, ED50, is calculated by the Reed-Muench method (Reed, L. G. and Muench, H., "A simple method of estimating fifty percent end points," American Journal of Hygiene, 27, 493-497 (1938).

[4] = system: Staphylococcus aureus; test: as above; conditions: mouse i.p. Staphylococcus aureus infection, oral, dosed at infection and 4 h post-infection, 7 days; for ED50: Staphylococcus aureus, po, 168 h, read-out: ED50 (50 percent effective dose); for ED50 (50 percent effective dose): 10080 min
Protocol: as §1

[5] = system: Staphylococcus aureus; test: In vivo efficacy of compounds administered subcutaneously in mouse intraperitoneal infections; conditions: mouse i.p. Staphylococcus aureus infection, subcutaneous, dosed at infection and 4 h post-infection, 7 days; for ED50: sc, 168 h, read-out: ED50 (50 percent effective dose); for ED50 (50 percent effective dose): 10080 min
Protocol: as §1

CSc1ccc(N2CC(CNC=O)OC2=O)cc1 (stereo not shown) [Example 89]
MIC [1]: 25 µg/mL (≈ 93.9 µM)
MIC [2]: > 200 µg/mL
ED50 [3]: > 138 mg/kg
ED50 [4]: 11 mg/kg

CS(=O)(=O)c1ccc(N2CC(CN=[N+]=[N-])OC2=O)cc1 (single isomer, unassigned) [Example 2, (l)-5-Azidomethyl-3-[4-(methylsulfonyl)phenyl]-2-oxazolidinone]
MIC [1]: 6.3 µg/mL (≈ 21.3 µM)
MIC [2]: > 100 µg/mL
ED50 [3]: 52.6 mg/kg
ED50 [4]: 7.3 mg/kg

C[S+]([O-])c1ccc(N2CC(CNC=O)OC2=O)cc1 (stereo not shown) [Example 90]
MIC [1]: 25 µg/mL (≈ 88.6 µM)
MIC [2]: > 200 µg/mL
ED50 [3]: 98.4 mg/kg
ED50 [4]: 11.3 mg/kg

CC(=O)NCC1CN(c2ccc(N)cc2)C(=O)O1 (single isomer, unassigned) [Example 149, (l)-N-[3-(4-Aminophenyl)-2-oxooxazolidin-5-ylmethyl]acetamide]
MIC [1]: 100 µg/mL (≈ 401 µM)
MIC [2]: > 200 µg/mL
ED50 [3]: > 120 mg/kg
ED50 [4]: 20.2 mg/kg
ED50 [5]: 10.3 mg/kg

CC(=O)NCC1CN(c2ccc(C(F)(F)F)cc2)C(=O)O1 (stereo not shown) [Example 41]
MIC [1]: 12.5 µg/mL (≈ 41.4 µM)
MIC [2]: > 200 µg/mL
ED50 [3]: > 120 mg/kg
ED50 [4]: 5.3 mg/kg
ED50 [5]: 6.1 mg/kg

COC(=O)NCC1CN(c2ccc(C(C)C)cc2)C(=O)O1 (stereo not shown) [Example 52]
Microdilution Broth MIC [1]: 6.3 µg/mL
Microdilution Broth MIC [2]: > 200.0 µg/mL
ED50 (50 percent effective dose) [3]: > 120.0 mg/kg
ED50 (50 percent effective dose) [4]: 4.9 mg/kg

CC(=O)NCC1CN(c2ccc(C(C)C)cc2)C(=O)O1 (single isomer, unassigned) [Example 51, (l)-N-[3-(4-isopropylphenyl)-2-oxooxazolidin-5-ylmethyl]acetamide]
MIC [1]: 3.1 µg/mL (≈ 11.2 µM)
MIC [2]: > 200 µg/mL
ED50 [3]: 62.9 mg/kg
ED50 [4]: 6.4 mg/kg

C=CC(=O)NCC1CN(c2ccc(C(C)=O)cc2)C(=O)O1 (stereo not shown) [Example 96]
MIC [1]: 12.5 µg/mL (≈ 43.4 µM)
MIC [2]: > 50 µg/mL
ED50 [3]: 83.2 mg/kg
ED50 [4]: 7.9 mg/kg

CC(=O)NCC1CN(c2ccc(S(C)(=O)=O)cc2)C(=O)O1 (single isomer, unassigned) [Example 23, (l)-N-[3-[4-(Methylsulfonyl)phenyl]-2-oxooxazolidin-5-ylmethyl]acetamide]
MIC [1]: 3.2 µg/mL (≈ 10.2 µM)
MIC [2]: 25 µg/mL (≈ 80 µM)
ED50 [3]: 14 mg/kg
ED50 [4]: 3.3 mg/kg

CC(=O)NCC1CN(c2ccc(C#N)cc2)C(=O)O1 (stereo not shown) [Example 59]
MIC [1]: 100 µg/mL (≈ 386 µM)
MIC [2]: > 200 µg/mL
ED50 [3]: 88 mg/kg
ED50 [4]: 4.3 mg/kg

[N-]=[N+]=NCC1CN(c2ccc(S(N)(=O)=O)cc2)C(=O)O1 (single isomer, unassigned) [Example 3, (l)-4-[5-(Azidomethyl)-2-oxooxazolidin-3-yl]benzenesulfonamide]
MIC [1]: 25 µg/mL (≈ 84.1 µM)
MIC [2]: > 100 µg/mL
ED50 [3]: > 120 mg/kg
ED50 [4]: 29.3 mg/kg

COC(=O)NCC1CN(c2ccc([S+](C)[O-])cc2)C(=O)O1 (single isomer, unassigned) [Example 121, (l)-N-[3-[4-(Methylsulfinyl)phenyl]-2-oxooxazolidin-5-ylmethyl]carbamic acid, methyl ester]
MIC [1]: 18.8 µg/mL (≈ 60.2 µM)
MIC [2]: > 200 µg/mL
ED50 [3]: 55.9 mg/kg
ED50 [4]: 2.5 mg/kg

CCC(=O)NCC1CN(c2ccc(S(C)(=O)=O)cc2)C(=O)O1 (stereo not shown) [Example 27]
MIC [1]: 6.3 µg/mL (≈ 19.3 µM)
MIC [2]: 50 µg/mL (≈ 153 µM)
ED50 [3]: 37 mg/kg
ED50 [4]: 8 mg/kg

CC(=O)NCC1CN(c2ccc([S+]([O-])CCO)cc2)C(=O)O1 (stereo not shown) [Example 169, (l)-N-[3-[4-(2-Hydroxyethylsulfinyl)phenyl]-2-oxo-oxazolidin-5-ylmethyl]acetamide]
Microdilution Broth MIC [1]: 50.0 µg/mL
Microdilution Broth MIC [2]: 200.0 µg/mL
ED50 (50 percent effective dose) [4]: 99.1 mg/kg
ED50 (50 percent effective dose) [5]: 12.1 mg/kg

CS(=O)(=O)c1ccc(N2CC(CNC(=O)C3CC3)OC2=O)cc1 (stereo not shown) [Example 72]
MIC [1]: 25 µg/mL (≈ 73.9 µM)
MIC [2]: 200 µg/mL (≈ 591 µM)
ED50 [4]: > 120 mg/kg
ED50 [5]: 15.2 mg/kg

CC(=O)c1ccc(N2CC(CN)OC2=O)cc1 (stereo not shown) [Example 15]
MIC [1]: > 200 µg/mL
MIC [2]: > 200 µg/mL
ED50 [4]: 40 mg/kg
ED50 [5]: 24.9 mg/kg

CC(=O)NCC1CN(c2ccc(SCCO)cc2)C(=O)O1 (single isomer, unassigned) [Example 167, (l)-N-[3-[4-(2-Hydroxyethylthio)phenyl]-2-oxooxazolidin-5-ylmethyl]acetamide]
MIC [1]: 3.1 µg/mL (≈ 9.99 µM)
MIC [2]: > 200 µg/mL
ED50 [4]: 68.2 mg/kg
ED50 [5]: 10.8 mg/kg

C=CC(=O)NCC1CN(c2ccc(S(C)(=O)=O)cc2)C(=O)O1 (stereo not shown) [Example 69]
MIC [1]: 9.4 µg/mL (≈ 29 µM)
MIC [2]: 150 µg/mL (≈ 462 µM)
ED50 [3]: 65.7 mg/kg
ED50 [4]: 11.9 mg/kg

CC(=O)c1ccc(N2CC(CNC(=O)C(F)(F)F)OC2=O)cc1 (stereo not shown) [Example 178]
MIC [1]: 16 µg/mL (≈ 48.4 µM)
MIC [2]: > 128 µg/mL
ED50 [4]: 31.6 mg/kg
ED50 [5]: 31.6 mg/kg

CC(=O)NCC1CN(c2ccc(C)cc2)C(=O)O1 (stereo not shown) [Example 79]
MIC [1]: 200 µg/mL (≈ 806 µM)
MIC [2]: > 200 µg/mL
ED50 [4]: 99.8 mg/kg
ED50 [5]: 85.1 mg/kg

CC(=O)NCC1CN(c2ccc(CCCO)cc2)C(=O)O1 (stereo not shown) [Example 107]
MIC [1]: 2 µg/mL (≈ 6.84 µM)
MIC [2]: > 128 µg/mL
ED50 [4]: > 60 mg/kg
ED50 [5]: 18.6 mg/kg

NCC1CN(c2ccc(S(N)(=O)=O)cc2)C(=O)O1 (single isomer, unassigned) [Example 12, (l)-4-[5-(Aminomethyl)-2-oxooxazolidin-3-yl]benzenesulfonamide]
MIC [1]: > 100 µg/mL
MIC [2]: > 100 µg/mL
ED50 [4]: 179 mg/kg
ED50 [5]: 89.8 mg/kg

CC(C)c1ccc(N2CC(CN)OC2=O)cc1 (stereo not shown) [Example 17]
MIC [1]: > 200 µg/mL
MIC [2]: > 200 µg/mL
ED50 [4]: > 120 mg/kg
ED50 [5]: 24.9 mg/kg

CC(=O)NCC1CN(c2ccc([S+]([O-])CCO)cc2)C(=O)O1 (stereo not shown) [Example 168, (l)-N-[3-[4-(2-Hydroxyethylsulfinyl)phenyl]-2-oxo-oxazolidin-5-ylmethyl]acetamide]
Microdilution Broth MIC [1]: 25.0 µg/mL
Microdilution Broth MIC [2]: > 200.0 µg/mL
ED50 (50 percent effective dose) [4]: 49.8 mg/kg
ED50 (50 percent effective dose) [5]: 24.3 mg/kg

CC(=O)NC[C@H]1CN(c2ccc([S@+](C)[O-])cc2)C(=O)O1 [Example 181, (S,S)-N-[3-[4-(Methylsulfinyl)phenyl]-2-oxo-5-oxazolidinylmethyl]acetamide]
MIC [1]: 16 µg/mL (≈ 54 µM)
MIC [2]: > 128 µg/mL
ED50 [4]: 2.8 mg/kg
ED50 [5]: 1 mg/kg

CON=C(C)c1ccc(N2CC(CNC(C)=O)OC2=O)cc1 (single isomer, unassigned) [Example 160, (l)-N-[3-(4-Acetylphenyl)-2-oxooxazolidin-5-ylmethyl]acetamide Oxime, methyl ether]
MIC [1]: 12.5 µg/mL (≈ 40.9 µM)
MIC [2]: > 200 µg/mL
ED50 [4]: < 4.4 mg/kg
ED50 [5]: < 4.4 mg/kg

CS(=O)(=O)c1ccc(N2CC(CNC=O)OC2=O)cc1 (single isomer, unassigned) [Example 21, (l)-N-[3-[4-(Methylsulfonyl)phenyl]-2-oxooxazolidin-5-ylmethyl]formamide]
MIC [1]: 6.3 µg/mL (≈ 21.1 µM)
MIC [2]: 100 µg/mL (≈ 335 µM)
ED50 [3]: 30.3 mg/kg
ED50 [4]: 7.3 mg/kg

CC(=O)NCC1CN(c2ccc3c(c2)OCO3)C(=O)O1 (stereo not shown) [Example 62]
MIC [1]: 50 µg/mL (≈ 180 µM)
MIC [2]: > 200 µg/mL
ED50 [3]: > 120 mg/kg
ED50 [4]: 19.1 mg/kg

CC(=O)NC[C@H]1CN(c2ccc([S@@+](C)[O-])cc2)C(=O)O1 [Example 180]
MIC [1]: 4 µg/mL (≈ 13.5 µM)
MIC [2]: 128 µg/mL (≈ 432 µM)
ED50 [4]: 2.5 mg/kg
ED50 [5]: 0.8 mg/kg

CC(C)c1ccc(N2CC(CNC(=O)CN)OC2=O)cc1 (racemic) [Example 157, (dl)-2-Amino-N-[3-[4-(1-methylethyl)phenyl]-2-oxooxazolidin-5-ylmethyl]acetamide]
MIC [1]: 50 µg/mL (≈ 172 µM)
MIC [2]: > 200 µg/mL
ED50 [4]: 58.9 mg/kg
ED50 [5]: 19.6 mg/kg

COC(=O)N(C)CC1CN(c2ccc(S(C)(=O)=O)cc2)C(=O)O1 (stereo not shown) [Example 128]
MIC [1]: > 200 µg/mL
MIC [2]: > 200 µg/mL
ED50 [4]: 62 mg/kg
ED50 [5]: 33.6 mg/kg

CC(C)c1ccc(N2CC(CN=[N+]=[N-])OC2=O)cc1 (stereo not shown) [Example 7]
MIC [1]: 100 µg/mL (≈ 384 µM)
MIC [2]: > 200 µg/mL
ED50 [4]: 24.2 mg/kg
ED50 [5]: 33.7 mg/kg

CC(=O)NCC1CN(c2ccc(C(C)=NN)cc2)C(=O)O1 (single isomer, unassigned) [Example 131, (l)-N-[3-[4-(1-Hydrazonoethyl)phenyl]-2-oxo-5-oxazolidinylmethyl]acetamide]
MIC [1]: 3.1 µg/mL (≈ 10.7 µM)
MIC [2]: 100 µg/mL (≈ 344 µM)
ED50 [4]: < 4.4 mg/kg
ED50 [5]: < 4.4 mg/kg

CCCCc1ccc(N2CC(CNC(=O)OC)OC2=O)cc1 (stereo not shown) [Example 80]
MIC [1]: 25 µg/mL (≈ 81.6 µM)
MIC [2]: > 200 µg/mL
ED50 [4]: 64 mg/kg
ED50 [5]: 42.3 mg/kg

CC(=O)NCC1CN(c2ccc(C(=O)C(Br)(Br)Br)cc2)C(=O)O1 (stereo not shown) [Example 140]
MIC [1]: 4 µg/mL (≈ 7.8 µM)
MIC [2]: 128 µg/mL (≈ 250 µM)
ED50 [4]: 6.6 mg/kg
ED50 [5]: 13.2 mg/kg
